Legend:
CD40 = experiment: Flow cytometry of CD40 on D2SC/1 DC line after CD40L and inhibitors; format: cell-based
Experimental: FIG. 8A-FIG. 8C show CD40L downregulates and reduces the signaling capacity of CD40. FIG. 8A provides two graphs showing endocytosis inhibition reduces CD40 downregulation. D2SC/1 cell lines were incubated with 250 μM cytochalasin B for 1 hour followed by a 30 min CD40L treatment. D2SC/1 cells were also treated with cytochalasin B, the DMSO solvent control, and CD40L alone. K^+-depletion of the D2SC/1 cell line was also carried out prior to CD40 surface staining and flow cytometry analysis. Only viable cells were gated for analysis. FIG. 8B provides flow cytometry analysis showing inhibition of lysosomal degradation enhances intracellular CD40 levels. D2SC/1 cell lines were incubated with 0.5 μM bafilomycin A inhibitor for 1 hour followed by intracellular staining for CD40 (Total CD40). Total CD40 is compared to surface CD40 fluorescence. FIG. 8C is a graph showing inhibition of endocytosis intensifies the CD40 activation signal in DC Lines. Staining and analysis of surface H-2K^d.
To initially investigate the potential downregulation of surface CD40 upon ligand engagement, flow cytometric analysis of DC surface expression of CD40 was monitored in the presence and absence of CD40L.

RelB = experiment: Nuclear translocation of RelB by western blot of nuclear lysates of iCD40 D2SC/1 DCs, with pulse-chase; format: cell-based; conditions: pulse-chase experiments
From the text: FIG. 2A-FIG. 2F show inducible CD40 initiates a potent NFkB signal in DCs. FIG. 2A is a photograph of an anti-HA Western Blot Analysis of iCD40 D2SC/1 DC Clones. FIG. 2B is a photograph of anti-HA Immunofluorescence of D2SC/1.Hi (lt) and D2SC/1 (rt) FIG. 2C is a graph of results of an NFκB-SEAP Reporter Assay. FIG. 2D is a graph of results and a photograph that show induction of RelB and Sp1 in D2SC/1.Hi by AP20187. FIG. 2E is a graph of results and a photograph of results of assays where maximum concentrations of each agent (based on titrations) were co-incubated with iCD40 D2SC/1 for 24 hrs and nuclear lysates were analyzed by western blot.
Reporter assays were carried out in these cell lines to determine whether iCD40 could also induce NFκB activation in DCs. […] Several studies have identified that the RelB subunit of NFκB plays a significant role in the DC maturation program (Pettit 1997; Martin 2003). […] Therefore, as a surrogate marker for DC activation, the nuclear translocation of RelB was analyzed by western blot in iCD40 DCs exposed to log dilutions of AP20187 (FIG. 2D).
DC activation potency of iCD40 was compared with other traditional DC maturation stimuli, such as LPS, TNFα, anti-CD40 mAb, and CD40L. […]

IL-12 = experiment: Intracellular cytokine staining of IL-12 in BMDCs; format: cell-based, C57BL/6 mice; conditions: decreased thereafter
From the text: A viral region E1 and E3-deleted, replication-deficient type 5 adenoviral vector was engineered to express both iCD40 and EGFP under the control of the CMV early/immediate promoter/enhancer. Ad-iCD40-GFP successfully transduced and expressed the iCD40 transgene, as well as the EGFP marker, in purified BMDCs (FIG. 5A,B). […] The effects of Ad-iCD40-GFP on BMDCs were studied by using intracellular cytokine staining to evaluate DC expression of the TH1-polarizing cytokine, IL-12. The results confirmed numerous previous reports that an empty adenoviral vector can contribute to background fluorescence readings by stimulating the production of low levels of this cytokine (FIG. 5D) (Korst 2002).

[1] = tested on: syngeneic lymph node (LN)-derived cells; experiment: Mixed lymphocyte reaction, 3H-thymidine T cell proliferation with mitomycin C-treated D2SC/1 DCs; format: cell-based; conditions: purified CD8+ T cells from LN tissue (>95%), no CD4+ help
Experimental: The initial approach to the determination of the T cell stimulation capacity of iCD40 DCs involved the co-incubation of mitomycin C-treated D2SC/1 DCs with syngeneic lymph node (LN)-derived cells in vitro. This mixed lymphocyte reaction (MLR) assay measured the ability of iCD40 DCs to induce a syngeneic T cell proliferative response to bovine serum-derived xenogeneic antigens (FIG. 3C). […] In order to investigate whether this T cell activation effect was dependent on CD4+ T cell help, CD8+ T cells from LN tissue (>95%) were purified and the ^3H-thymidine-based proliferation assay was repeated (FIG. 3C). […] Furthermore, the CD4+-depletion data inferred that the iCD40 receptor may be capable of substituting for CD4+ T cell help in DC-based vaccination strategies.

iCD40-IICD40 DC lines = experiment: iCD40-IICD40 double-stable D2SC/1 DC lines, western blot and H-2K^d surface expression; format: cell-based; conditions: IICD40-expressing lines vs empty vector control
From the text: FIG. 9A-FIG. 9D show iCD40 circumvents negative feedback inhibition by the Type II CD40 (IICD40) isoform. FIG. 9A is a schematic of Type I, II, and iCD40. […] The type II CD40 isoform was rt-PCR amplified from purified BMDCs, subcloned into a pEF-1α-driven myc-tagged ZeoR vector, and transfected into iCD40-expressing D2SC/1 cells. Double clonal stable lines were generated by G418/zeocin selection and limiting dilution. Resulting lines were screened for IICD40 expression by anti-myc western blot and analyzed for iCD40 expression by anti-HA western blots. FIG. 9C is a graph showing that Type II CD40 down-regulates surface expression of Type I CD40 in DC Lines. Empty vector control and IICD40-expressing D2SC/1 lines were analyzed for their surface expression of CD40 by flow cytometry. Only viable cells were gated for analysis. FIG. 9D provides two graphs showing the Type II CD40 isoform downmodulates Type I CD40 signaling, but not iCD40 signaling. iCD40-IICD40-expressing D2SC/1 cell lines were cultured in the presence of increasing concentrations of CD40L and the AP20187 drug followed by surface staining and flow analysis of H-2K^d. […]
To expand upon these findings, the effects of CD40L and AP20187 titrations on each of the IICD40 lines were analyzed based on the hypothesis that IICD40-mediated type I CD40 downregulation should blunt the DC response to CD40L but not to AP20187 (FIG. 9D).

Molecule: C=C1[C@@H](C)[C@H]2[C@H](Cc3ccccc3)NC(=O)[C@]23OC(=O)/C=C/[C@H](O)CCC[C@@H](C)C/C=C/[C@H]3[C@@H]1O [cytocholasin B]
- sensitivity of CD40L-induced CD40 downregulation to inhibitor (CD40; endocytosis inhibitor): sensitive

Molecule: TNFα
- duration of RelB induction (RelB): 24 h

Molecule: balifomycin A1
- total CD40 levels (intracellular staining) (CD40; endosomal H^+ATPase inhibitor): enhanced total CD40 levels

Molecule: lipopolysaccharide [LPS]
- time of peak IL-12p70/p40 synthesis (IL-12): 8 h
- CD8+ T cell proliferation [1]: failed to circumvent the requirement for CD4+ T cell-derived helper signals

B1: CD40L: CD40 ligand (protein)
chain: MIETYNQTSPRSAATGLPISMKIFMYLLTVFLITQMIGSALFAVYLHRRLDKIEDERNLHEDFVFMKTIQRCNTGERSLSLLNCEEIKSQFEGFVKDIMLNKEETKKENSFEMQKGDQNPQIAAHVISEASSKTTSVLQWAEKGYYTMSNNLVTLENGKQLTVKRQGLYYIYAQVTFCSNREASSQAPFIASLCLKSPGRFERILLRAANTHSSAKPCGQQSIHLGGVFELQPGASVFVNVTDPSQVSHGTGFTSFGLLKL
- surface CD40 mean fluorescence intensity (CD40; D2SC/1 DC line, rapid kinetics): promptly reduced the mean fluorescence intensity of CD40
- time of peak IL-12p70/p40 synthesis (IL-12): 8 h
- MHC class I H-2K^d surface expression dose-response (iCD40-IICD40 DC lines): elevated amounts of CD40L were required to initiate signaling through the CD40 axis

From US10420824B2, “Induced activation in dendritic cells” (BAYLOR COLLEGE OF MEDICINE, priority 2003, dated 2019)
